Legend:
[1] = target: T1, RIP1 (Homo sapiens, UniProt Q13546); experiment: Fluorescent polarization based binding assay (FP Binding Assay); details: His-GST-RipK1(1-375) 10 nM, fluorescent labeled ligand 5 nM
T1 construct: His-GST-RipK1(1-375) was purified from a Baculovirus expression system; His (N); GST (N); made in house
T1 sequence (Q13546 1-375): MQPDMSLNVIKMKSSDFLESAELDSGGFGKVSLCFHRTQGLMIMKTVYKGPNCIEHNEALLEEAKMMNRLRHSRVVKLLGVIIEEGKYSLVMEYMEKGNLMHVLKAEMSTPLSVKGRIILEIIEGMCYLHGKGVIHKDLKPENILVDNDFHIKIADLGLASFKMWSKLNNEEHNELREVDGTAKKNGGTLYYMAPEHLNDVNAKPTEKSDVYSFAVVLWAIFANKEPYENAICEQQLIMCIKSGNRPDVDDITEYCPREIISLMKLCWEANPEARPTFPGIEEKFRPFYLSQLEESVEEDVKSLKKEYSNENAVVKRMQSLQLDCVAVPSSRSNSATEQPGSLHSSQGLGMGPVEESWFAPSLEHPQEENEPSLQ
Experimental: In vitro Assay: A fluorescent polarization based binding assay was developed to quantitate interaction of novel test compounds at the ATP binding pocket of RIP1, by competition with a fluorescently labeled ATP competitive ligand. […] Test compounds were prepared in neat DMSO and 100 nL was dispensed to individual wells of a multiwell plate. […] Following the incubation, 5 μL of the fluorescent labeled ligand solution, was added to each reaction, at twice the final assay concentration, and incubated at room temperature for at least 15 minutes. Finally, samples were read on an instrument capable of measuring fluorescent polarization. Test compound inhibition was expressed as percent inhibition of internal assay controls. For concentration response experiments, normalized data were fit and pIC50 values determined using conventional techniques.

[2] = test system: H-22; experiment: Syngeneic subcutaneous tumor model H-22; type: in vivo, mouse; details: H-22 model; Example 6 40 mg/kg p.o. BID up to 21 days
Experimental: The efficacy of RIP1 inhibition was tested in 12 different murine (6-8 week old) syngeneic subcutaneous tumor models. RIP1 inhibition was tested as a single agent in all models, with anti-PD1 combination arms added to the five of the final models.
T and C are the mean tumor volume of the treated and control groups, respectively, on a given day. • 2) Tumor and plasma collection at study end for further investigation.
Cell Culture: The 12 syngeneic cell lines were maintained in vitro with different medium (indicated in Table 3) at 37° C. in an atmosphere of 5% CO2 in air. The tumor cells were routinely subcultured twice weekly. The cells in an exponential growth phase were harvested and counted for tumor inoculation.
Each mouse was inoculated subcutaneously with tumor cells in 0.1 mL of PBS for tumor development. The treatments were started when the mean tumor size reached approximately 80-120 mm^3 (around 100 mm^3).

| Structure (SMILES) | FP Binding Assay (pIC50) [1] | Mean tumor growth inhibition (TGI) at model termination [2] |
| --- | --- | --- |
| O=C(N[C@H]1CNc2cccc(F)c2NC1=O)c1nnc(Cc2ccccc2F)[nH]1 [Example 1, (S)—N-(9-Fluoro-2-oxo-2,3,4,5-tetrahydro-1H-benzo[b][1,4]diazepin-3-yl)-5-(2-fluorobenzyl)-4H-1,2,4-triazole-3-carboxamide] | 8.0 |  |
| CN1C(=O)[C@@H](NC(=O)c2n[nH]c(Cc3ccccc3F)n2)CNc2ccccc21 [Example 3, (S)-5-(2-Fluorobenzyl)-N-(1-methyl-2-oxo-2,3,4,5-tetrahydro-1H-benzo[b][1,4]diazepin-3-yl)-1H-1,2,4-triazole-3-carboxamide] | 7.4 |  |
| N#Cc1cc(N2CCC(C(=O)N3N=CC[C@H]3c3cc(F)cc(F)c3)CC2)ncn1 [Example 6, (S)-6-(4-(5-(3,5-difluorophenyl)-4,5-dihydro-1H-pyrazole-1-carbonyl)piperidin-1-yl)pyrimidine-4-carbonitrile] |  | 19% |
